Assay results from patent US10278962B2, “Tricyclic analogues, preparation method and uses thereof” (SHANGHAI INSTITUTE OF MATERIA MEDICA, CHINESE ACADEMY OF …, priority 2015, dated 2019).

Tests used:
ACAT2 [1] = molecular target: T1, ACAT2 (Homo sapiens (Human), UniProt O75908); test: Inhibitory effect on ACAT2 activity, NBD22-fluorescent labeled sterol method in intact HepG2 cells; assay type: cell-based; conditions: for IC50: NBD22-fluorescent labeled sterol, 6 hours incubation; for inhibition rate % on ACAT2 activity: relative inhibition rate with Pyripyropene A (0.2 μM) as the 100% inhibition control
Procedure: An inhibition curve was plotted based on that different concentrations of compounds would cause the fluorescence intensity to change by inhibiting the synthesis of the ester containing NBD22-fluorescent labeled sterol, thereby IC50 was calculated.
HepG2 cells were cultured in a 96-well plate at a starting density of 1.5×10^4 cells per well for 24 hours. After the cholesterol mixture was well mixed, the cells were cultured for another 24 hours. Then NBD22-fluorescent labeled sterol at a final concentration of 0.5 μg/ml, and compounds at a final concentration gradient of 0, 0.008, 0.04, 0.2, 1 and 5 μM were added. Three wells were set for each concentration. After incubating for 6 hours, the fluorescence intensity was measured using a fluorescence analyzer (E488, A535). The fluorescence intensity values were plotted against different concentrations of the compounds and IC50 was obtained.

ACAT2 [2] = molecular target: T1, ACAT2; test: Cholesterol oxidase method for ACAT activity in HepG2 cells, ACAT2; assay type: cell-based; conditions: 10 μg/ml cholesterol, 9 hours
Procedure: HepG2 cells were used for testing the inhibitory effect of compounds at different concentrations on ACAT1 or ACAT2 activity, thereby obtaining IC50 to calculate SI(ACAT1-IC50/ACAT2-IC50).
HepG2 cells were cultured in a 6-well plate at a starting density of 4×10^5 cells per well for 24 hours, then the medium was replaced and 10 μg/ml of cholesterol and the compounds at different concentrations were added. The cells were cultured for another 9 hours and cholesterol amounts of the cells were measured with Cholesterol Assay kit.

T1 sequence (O75908 whole entry): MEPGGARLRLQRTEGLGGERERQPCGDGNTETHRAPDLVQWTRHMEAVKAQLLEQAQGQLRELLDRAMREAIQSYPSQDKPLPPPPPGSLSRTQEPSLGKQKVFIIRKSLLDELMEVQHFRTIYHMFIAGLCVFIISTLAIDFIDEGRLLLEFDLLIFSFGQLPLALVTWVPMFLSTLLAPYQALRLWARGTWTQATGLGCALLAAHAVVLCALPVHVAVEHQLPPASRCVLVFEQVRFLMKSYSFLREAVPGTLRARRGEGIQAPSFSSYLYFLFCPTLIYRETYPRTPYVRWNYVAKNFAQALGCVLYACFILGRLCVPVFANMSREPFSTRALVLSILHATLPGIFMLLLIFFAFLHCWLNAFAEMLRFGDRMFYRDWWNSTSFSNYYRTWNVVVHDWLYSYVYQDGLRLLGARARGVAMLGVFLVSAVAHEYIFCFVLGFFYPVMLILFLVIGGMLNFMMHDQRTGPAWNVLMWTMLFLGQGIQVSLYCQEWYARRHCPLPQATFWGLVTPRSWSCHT

Compound: CC(=O)OCC(C)(OC(C)=O)[C@H]1CC2[C@@H](O)c3c(cc(-c4cccnc4)oc3=O)O[C@]2(C)[C@@H](OC(C)=O)C1 (stereo in doubt) [Compound 16]
- IC50 (ACAT2 [1]): 245 nM

Compound: CC(=O)OCC(COC(C)=O)[C@@H]1C[C@H](OC(C)=O)[C@@]2(C)Oc3cc(-c4cccnc4)oc(=O)c3C(=O)[C@@H]2C1 [Compound 2]
- inhibition rate % on ACAT2 activity (ACAT2 [1]): 104%

Compound: CC(=O)OCC(C)(OC(C)=O)[C@@H]1C[C@H](OC(C)=O)[C@@]2(C)Oc3cc(-c4cccnc4)oc(=O)c3C(=O)[C@@H]2C1 (stereo partly shown) [Compound 3]
- inhibition rate % on ACAT2 activity (ACAT2 [1]): 90%

Compound: CC(=O)OCC(COC(C)=O)[C@@H]1C[C@H](OC(C)=O)[C@@]2(C)Oc3cc(-c4cccnc4)oc(=O)c3[C@@H](O)[C@@H]2C1 [Compound 6]
- inhibition rate % on ACAT2 activity (ACAT2 [1]): 90%

Compound: CC(=O)OCC(C)(OC(C)=O)[C@@H]1C[C@H](OC(C)=O)[C@@]2(C)Oc3cc(-c4cccnc4)oc(=O)c3[C@@H](O)[C@@H]2C1 (stereo partly shown) [Compound 7]
- IC50 (ACAT2 [2]): 147 nM
- IC50 (ACAT2 [1]): 152 nM

Compound: CC(=O)OCC(C)(OC(C)=O)[C@@H]1C[C@H](OC(=O)c2ccc(C#N)cc2)[C@@]2(C)Oc3cc(-c4cccnc4)oc(=O)c3[C@@H](OC(C)=O)[C@@H]2C1 (stereo partly shown) [Compound 8]
- IC50 (ACAT2 [2]): 61 nM
- IC50 (ACAT2 [1]): 86 nM

Compound: CC(O)(COC(=O)c1ccc(C#N)cc1)[C@@H]1C[C@H](OC(=O)c2ccc(C#N)cc2)[C@@]2(C)Oc3cc(-c4cccnc4)oc(=O)c3C(=O)[C@@H]2C1 (stereo partly shown) [Compound 13]
- IC50 (ACAT2 [2]): 12 nM
- IC50 (ACAT2 [1]): 23 nM

Compound: CC(O)(COC(=O)c1ccc(C#N)cc1)[C@@H]1C[C@H](O)[C@@]2(C)Oc3cc(-c4cccnc4)oc(=O)c3C(=O)[C@@H]2C1 (stereo partly shown) [Compound 14]
- IC50 (ACAT2 [2]): 129 nM
- IC50 (ACAT2 [1]): 103 nM

Compound: CC(=O)OCC(C)(OC(C)=O)[C@@H]1C[C@H](OC(C)=O)[C@@]2(C)Oc3cc(-c4cccnc4)oc(=O)c3[C@@H](O)[C@@H]2C1 (stereo partly shown) [Compound 15]
- IC50 (ACAT2 [1]): 831 nM

Compound: CC(=O)OC[C@](C)(OC(C)=O)[C@@H]1C[C@@H]2[C@@H](O)c3c(cc(-c4cccnc4)oc3=O)O[C@@]2(C)[C@H](OC(C)=O)C1 [Compound 21]
- IC50 (ACAT2 [2]): 55 nM
- IC50 (ACAT2 [1]): 78 nM

Compound: CC(=O)OC[C@](C)(OC(C)=O)[C@H]1C[C@@H](OC(C)=O)[C@]2(C)Oc3cc(-c4cccnc4)oc(=O)c3[C@@H](O)[C@@H]2C1 [Compound 22]
- IC50 (ACAT2 [2]): 90 nM
- IC50 (ACAT2 [1]): 86 nM

Compound: CC(=O)OC[C@](C)(OC(C)=O)[C@@H]1C[C@@H]2[C@H](O)c3c(cc(-c4cccnc4)oc3=O)O[C@@]2(C)[C@H](OC(C)=O)C1 [Compound 26]
- IC50 (ACAT2 [1]): 433 nM

Compound: CC(=O)OC[C@](C)(O)[C@H]1C[C@@H](O)[C@]2(C)Oc3cc(-c4cccnc4)oc(=O)c3[C@H](O)[C@H]2C1 [Compound 29]
- IC50 (ACAT2 [1]): 81 nM
